Results reported in PubChem BioAssay (NCI).
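Tested at 5 concentrations; 48 h exposure; 96-well plates; endpoints linearly interpolated, else capped at highest concentration. Definition used: TGI = concentration required for complete inhibition of growth.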

How the values were obtained:
Test in all cases: NCI tumour cell line growth inhibition, 48 h
786-0 renal = test system: 786-0 renal
A498 renal = test system: A498 renal
A549 NSCLC = test system: A549 NSCLC
ACHN renal = test system: ACHN renal
CCRF-CEM leukemia = test system: CCRF-CEM leukemia
COLO 205 colon = test system: COLO 205 colon
EKVX NSCLC = test system: EKVX NSCLC
HCC-2998 colon = test system: HCC-2998 colon
HCT-116 colon = test system: HCT-116 colon
HCT-15 colon = test system: HCT-15 colon
HL-60(TB) leukemia = test system: HL-60(TB) leukemia
HOP-62 NSCLC = test system: HOP-62 NSCLC
HOP-92 NSCLC = test system: HOP-92 NSCLC
HS 578T breast = test system: HS 578T breast
HT29 colon = test system: HT29 colon
IGROV1 ovarian = test system: IGROV1 ovarian
K-562 leukemia = test system: K-562 leukemia
KM12 colon = test system: KM12 colon
LOX IMVI melanoma = test system: LOX IMVI melanoma
M14 melanoma = test system: M14 melanoma
MALME-3M melanoma = test system: MALME-3M melanoma
MCF7 breast = test system: MCF7 breast
MDA-MB-231 breast = test system: MDA-MB-231 breast
MDA-MB-435 = test system: MDA-MB-435
NCI-H226 lung = test system: NCI-H226 lung
NCI-H23 lung = test system: NCI-H23 lung
NCI-H522 lung = test system: NCI-H522 lung
NCI/ADR-RES ovarian = test system: NCI/ADR-RES ovarian
OVCAR-3 ovarian = test system: OVCAR-3 ovarian
OVCAR-4 ovarian = test system: OVCAR-4 ovarian
OVCAR-5 ovarian = test system: OVCAR-5 ovarian
OVCAR-8 ovarian = test system: OVCAR-8 ovarian
PC-3 prostate = test system: PC-3 prostate
RPMI-8226 leukemia = test system: RPMI-8226 leukemia
RXF 393 renal = test system: RXF 393 renal
SF-295 CNS = test system: SF-295 CNS
SF-539 CNS = test system: SF-539 CNS
SK-MEL-2 melanoma = test system: SK-MEL-2 melanoma
SK-MEL-5 melanoma = test system: SK-MEL-5 melanoma
SK-OV-3 ovarian = test system: SK-OV-3 ovarian
SN12C renal = test system: SN12C renal
T-47D breast = test system: T-47D breast
TK-10 renal = test system: TK-10 renal
U251 CNS = test system: U251 CNS
UACC-257 melanoma = test system: UACC-257 melanoma
UACC-62 melanoma = test system: UACC-62 melanoma
UO-31 renal = test system: UO-31 renal

With `CCc1ccc2c(c1)CC1(C2)Cc2cc3c(cc2C1)C(=O)CC3` (configuration not stated) as the molecule, how does the TGI (786-0 renal) read?
The TGI was 60.2 µM.

And the TGI (A498 renal)?
The TGI was 46.4 µM.

And the TGI (A549 NSCLC)?
Its TGI is 71.8 µM.

What about the TGI (ACHN renal) of the same molecule?
Its TGI is 63.9 µM.

What about the TGI (CCRF-CEM leukemia) of the same molecule?
Its TGI is 8.31 µM.

And the TGI (COLO 205 colon)?
The TGI was 17.5 µM.

What about the TGI (EKVX NSCLC) of the same molecule?
Its TGI is greater than 100 µM.

What about the TGI (HCC-2998 colon) of the same molecule?
The TGI was 47.1 µM.

And the TGI (HCT-116 colon)?
Its TGI is 29.9 µM.

And the TGI (HCT-15 colon)?
Its TGI is 67.3 µM.

And the TGI (HL-60(TB) leukemia)?
The TGI was 15.6 µM.

And the TGI (HOP-62 NSCLC)?
Its TGI is 78.5 µM.

What about the TGI (HOP-92 NSCLC) of the same molecule?
Its TGI is 52.7 µM.

And the TGI (HS 578T breast)?
Its TGI is greater than 100 µM.

What about the TGI (HT29 colon) of the same molecule?
The TGI was 23.9 µM.

And the TGI (IGROV1 ovarian)?
Its TGI is greater than 100 µM.

What about the TGI (K-562 leukemia) of the same molecule?
The TGI was 11.9 µM.

And the TGI (KM12 colon)?
The TGI was greater than 100 µM.

What about the TGI (LOX IMVI melanoma) of the same molecule?
Its TGI is 37 µM.

What about the TGI (M14 melanoma) of the same molecule?
Its TGI is greater than 100 µM.

And the TGI (MALME-3M melanoma)?
The TGI was 57.1 µM.

What about the TGI (MCF7 breast) of the same molecule?
The TGI was greater than 100 µM.

And the TGI (MDA-MB-231 breast)?
Its TGI is 87.7 µM.

What about the TGI (MDA-MB-435) of the same molecule?
The TGI was 8.53 µM.

And the TGI (NCI-H226 lung)?
Its TGI is 67 µM.

What about the TGI (NCI-H23 lung) of the same molecule?
The TGI was 96.6 µM.

And the TGI (NCI-H522 lung)?
The TGI was 57.3 µM.

What about the TGI (NCI/ADR-RES ovarian) of the same molecule?
The TGI was greater than 100 µM.

And the TGI (OVCAR-3 ovarian)?
The TGI was 42.8 µM.

What about the TGI (OVCAR-4 ovarian) of the same molecule?
The TGI was 65.4 µM.

What about the TGI (OVCAR-5 ovarian) of the same molecule?
The TGI was greater than 100 µM.

What about the TGI (OVCAR-8 ovarian) of the same molecule?
Its TGI is 64.9 µM.

What about the TGI (PC-3 prostate) of the same molecule?
Its TGI is 64.1 µM.

What about the TGI (RPMI-8226 leukemia) of the same molecule?
The TGI was 50.7 µM.

And the TGI (RXF 393 renal)?
Its TGI is greater than 100 µM.

And the TGI (SF-295 CNS)?
The TGI was 65.3 µM.

What about the TGI (SF-539 CNS) of the same molecule?
Its TGI is 61.4 µM.

What about the TGI (SK-MEL-2 melanoma) of the same molecule?
Its TGI is 16.8 µM.

What about the TGI (SK-MEL-5 melanoma) of the same molecule?
The TGI was 16.9 µM.

And the TGI (SK-OV-3 ovarian)?
Its TGI is greater than 100 µM.

What about the TGI (SN12C renal) of the same molecule?
Its TGI is 89.6 µM.

What about the TGI (T-47D breast) of the same molecule?
Its TGI is 85 µM.

And the TGI (TK-10 renal)?
The TGI was greater than 100 µM.

What about the TGI (U251 CNS) of the same molecule?
The TGI was greater than 100 µM.

And the TGI (UACC-257 melanoma)?
Its TGI is 51.6 µM.

And the TGI (UACC-62 melanoma)?
The TGI was greater than 100 µM.

And the TGI (UO-31 renal)?
Its TGI is 92.9 µM.
